Where two headings read alike, the source gives them in different places.
How the values were obtained:
Assay type in all cases: cell-based
MMRU = experiment: SRB antiproliferative assay MMRU; conditions: Homo sapiens
From the text: (§1) The cells were passaged using Trypsin (Gibco).

HEPG2 = experiment: SRB antiproliferative assay HEPG2; conditions: Homo sapiens
From the text: as §1

[1] = biological target: T1, Ca2+-activated potassium channel (Gardos channel) of erythrocytes (Homo sapiens, UniProt O15554); experiment: Gardos channel assay
T1 construct: endogenous in cells; host or cells: erythrocytes

HT29 = experiment: SRB antiproliferative assay HT29; conditions: Homo sapiens
From the text: as §1

[2] = test system: NIH 3T3 mouse fibroblast cells; experiment: Mitogenic assay (mitogen-induced cell proliferation); conditions: for IC50: mitogen-induced cell proliferation
A549 = experiment: SRB antiproliferative assay A549; conditions: Homo sapiens
From the text: as §1

MCF7 = experiment: SRB antiproliferative assay MCF7; conditions: Homo sapiens
From the text: as §1

U118MG = experiment: SRB antiproliferative assay U118MG; conditions: Homo sapiens, U-118-MG; U118MG, 5% FCS/3 days; read-out: Test Compound IC50 Value in Cell Lines
From the text: as §1

HTB174 = experiment: SRB antiproliferative assay HTB174; conditions: HTB174 (Lung), 5% FCS/5 day incubation; read-out: Test Compound IC50
From the text: as §1

[3] = MMRU, 5% FCS/3 days, read-out: Test Compound IC50 Value in Cell Lines
[4] = HEPG2, 5% FCS/3 days, read-out: Test Compound IC50 Value in Cell Lines
[5] = HT-29, HT29, 5% FCS/3 days, read-out: Test Compound IC50 Value in Cell Lines
[6] = Mus musculus, NIH3T3, NIH 3T3 mouse fibroblast cells
[7] = A549, A549, 5% FCS/3 days, read-out: Test Compound IC50 Value in Cell Lines
[8] = MCF7, 5% FCS/3 days, read-out: Test Compound IC50 Value in Cell Lines
[9] = MMRU (Melanoma), 5% FCS/5 day incubation, read-out: Test Compound IC50
[10] = HEPG2 (Hepatocel), 5% FCS/5 day incubation, read-out: Test Compound IC50
[11] = HT-29, HT29 (Colon), 5% FCS/5 day incubation, read-out: Test Compound IC50
[12] = A549, A549 (Lung), 5% FCS/5 day incubation, read-out: Test Compound IC50
[13] = MCF7 (Breast), 5% FCS/5 day incubation, read-out: Test Compound IC50
[14] = MMRU, 5% FCS/2 days, read-out: Test Compound IC50 Value in Cell Lines
[15] = HT-29, HT29, 5% FCS/2 days, read-out: Test Compound IC50 Value in Cell Lines
[16] = A549, A549, 5% FCS/2 days, read-out: Test Compound IC50 Value in Cell Lines

T1 sequence (O15554 whole entry): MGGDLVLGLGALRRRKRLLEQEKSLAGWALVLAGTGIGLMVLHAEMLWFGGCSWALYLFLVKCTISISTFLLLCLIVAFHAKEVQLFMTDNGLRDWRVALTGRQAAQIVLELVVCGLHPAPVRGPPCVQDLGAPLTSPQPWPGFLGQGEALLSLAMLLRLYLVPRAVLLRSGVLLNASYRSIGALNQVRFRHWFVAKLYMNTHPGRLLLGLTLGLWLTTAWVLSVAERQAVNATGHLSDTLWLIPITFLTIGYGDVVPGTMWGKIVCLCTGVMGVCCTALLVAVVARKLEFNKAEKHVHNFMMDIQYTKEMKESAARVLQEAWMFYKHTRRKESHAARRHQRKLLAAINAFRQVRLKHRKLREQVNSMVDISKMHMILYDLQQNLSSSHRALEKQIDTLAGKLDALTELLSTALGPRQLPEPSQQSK

O=C(Nc1ccccc1)N1Cc2ccccc2C(c2ccccc2Cl)c2ccccc21 (centres unmarked) [Compound 32]
IC50 (MMRU; [3]): 4.9 µM | IC50 (HEPG2; [4]): 6.2 µM | inhibition at 10 µM ([1]; 10 μM compound): 0% | IC50 (HT29; [5]): 6.3 µM | IC50 [2, 6]: 1.1 µM | IC50 (A549; [7]): 6.9 µM | IC50 (MCF7; [8]): 5.4 µM | IC50 (U118MG): 6.8 µM

COc1ccc2c(c1)CNc1ccccc1C2(c1ccccc1)c1ccc(F)cc1 (centres unmarked) [Compound 12]
IC50 [1]: > 10 µM | inhibition at 10 µM ([1]; 10 μM compound): 54.8%

O=C(c1ccc(Cl)cc1)N1Cc2ccccc2C(c2ccccc2)c2ccccc21 (centres unmarked) [Compound 13]
IC50 (MMRU; [9]): 1.5 µM | IC50 (HEPG2; [10]): 1.8 µM | inhibition at 10 µM ([1]; 10 μM compound): 0% | IC50 (HT29; [11]): 1.5 µM | IC50 (HTB174): 1.4 µM | IC50 [2, 6]: 1.7 µM | IC50 (A549; [12]): 3.1 µM | IC50 (MCF7; [13]): 2.7 µM

O=C(c1ccccc1)N1Cc2ccccc2C(c2ccccc2)c2ccccc21 (centres unmarked) [Compound 16]
IC50 (MMRU; [9]): 2.7 µM | IC50 (HEPG2; [10]): 3.4 µM | IC50 [1]: > 10 µM | inhibition at 10 µM ([1]; 10 μM compound): 0.45% | IC50 (HT29; [11]): 2.6 µM | IC50 (HTB174): 2.6 µM | IC50 [2, 6]: 1.7 µM | IC50 (A549; [12]): > 5 µM | IC50 (MCF7; [13]): 4.2 µM

O=C(Nc1ccc([N+](=O)[O-])cc1)N1Cc2ccccc2C(c2ccccc2Cl)c2ccccc21 (centres unmarked) [Compound 35]
IC50 (MMRU; [9]): 3.1 µM | IC50 (MMRU; [14]): > 10 µM | IC50 (HEPG2; [10]): 4.5 µM | IC50 [1]: 0.071 to 0.099 µM | inhibition at 10 µM ([1]; 10 μM compound): 98.3% | IC50 (HT29; [11]): 4.8 µM | IC50 (HT29; [15]): 10 µM | IC50 (HTB174): 4 µM | IC50 (A549; [12]): > 5 µM | IC50 (A549; [16]): > 10 µM | IC50 (MCF7; [13]): 2.4 µM

CN1Cc2ccccc2C(c2ccccc2Cl)c2ccccc21 (centres unmarked) [Compound 29]
IC50 (MMRU; [14]): > 10 µM | Gardos Channel Assay Inhibition ([1]; 10 μM compound, 10 µM): 95.1% | IC50 (HT29; [15]): > 10 µM | Mitogenic Assay Inhibition ([2]; 10 µM compound, NIH 3T3 mouse fibroblast cells): 99.0% | IC50 ([2]; NIH 3T3 mouse fibroblast cells): 0.8 µM | IC50 (A549; [16]): > 10 µM

COc1ccc2c(c1)CN(C(=O)c1ccc(Cl)cc1)c1ccc(Cl)cc1C2c1ccccc1Cl (centres unmarked) [Compound 23]
IC50 (MMRU; [9]): 2.2 µM | IC50 (HEPG2; [10]): 2.3 µM | IC50 [1]: > 10 µM | inhibition at 10 µM ([1]; 10 μM compound): 18.2% | IC50 (HT29; [11]): 2.1 µM | IC50 (HTB174): 1.8 µM | IC50 (A549; [12]): 3.4 µM | IC50 (MCF7; [13]): 3.1 µM

CN1Cc2ccccc2C(c2ccccc2)c2cc(Br)ccc21 (centres unmarked) [Compound 7]
IC50 (MMRU; [14]): > 10 µM | IC50 [1]: > 10 µM | inhibition at 10 µM ([1]; 10 μM compound): 35.8% | IC50 (HT29; [15]): > 10 µM | IC50 [2, 6]: 1.6 µM | IC50 (A549; [16]): > 10 µM

CCOC(=O)C(=O)N1Cc2ccccc2C(c2ccccc2)c2ccccc21 (centres unmarked) [Compound 10]
IC50 [1]: 1.53 to 1.94 µM | inhibition at 10 µM ([1]; 10 μM compound): 63%

COC(=O)N1Cc2ccccc2C(c2ccccc2)c2ccccc21 (centres unmarked) [Compound 6]
IC50 (MMRU; [14]): 10 µM | IC50 [1]: 0.236 µM | inhibition at 10 µM ([1]; 10 μM compound): 97.5% | IC50 (HT29; [15]): > 10 µM | IC50 (A549; [16]): > 10 µM

Clc1ccc2c(c1)C(c1ccccc1)c1cc3ccccc3cc1CN2 (centres unmarked) [Compound 15]
IC50 [1]: > 10 µM | inhibition at 10 µM ([1]; 10 μM compound): 9.5%

COc1ccc2c(c1)CNc1ccc(Cl)cc1C2c1ccccc1Cl (centres unmarked) [Compound 19]
IC50 [1]: > 10 µM | inhibition at 10 µM ([1]; 10 μM compound): 52% | IC50 [2, 6]: 1.6 µM

CN1Cc2ccccc2C(c2ccccc2Cl)c2ccccc21 (centres unmarked) [Compound 4]
IC50 (MMRU; MMRU, 2% FCS/3 days, read-out: Test Compound IC50 Value in Cell Lines): 4.6 µM | IC50 [1]: 0.384 µM | inhibition at 10 µM ([1]; 10 μM compound): 98.1% | IC50 (HT29; HT-29, HT29, 2% FCS/3 days, read-out: Test Compound IC50 Value in Cell Lines): 9.7 µM | IC50 [2, 6]: 1.5 µM | IC50 (A549; A549, A549, 2% FCS/3 days, read-out: Test Compound IC50 Value in Cell Lines): 11.4 µM | IC50 (MCF7; MCF7, 2% FCS/3 days, read-out: Test Compound IC50 Value in Cell Lines): 1.7 µM

Cc1ccc(C(=O)N2Cc3ccccc3C(c3ccccc3)c3ccccc32)cc1 (centres unmarked) [Compound 22]
IC50 (MMRU; [9]): 0.9 µM | IC50 (HEPG2; [10]): 1.4 µM | IC50 [1]: > 10 µM | inhibition at 10 µM ([1]; 10 μM compound): 14.9% | IC50 (HT29; [11]): 0.7 µM | IC50 (HTB174): 1.4 µM | IC50 [2, 6]: 3.6 µM | IC50 (A549; [12]): 1.9 µM | IC50 (MCF7; [13]): 1.8 µM

COc1cccc2c1C(c1ccccc1Cl)c1cc(Cl)ccc1NC2 (centres unmarked) [Compound 18]
IC50 [1]: 0.502 to 0.692 µM | inhibition at 10 µM ([1]; 10 μM compound): 81.5% | IC50 [2, 6]: 2.6 µM

CNc1ccc(C(=O)N2Cc3ccccc3C(c3ccccc3Cl)c3ccccc32)cc1 (centres unmarked) [Compound 33]
IC50 (MMRU; [9]): 1.3 µM | IC50 (MMRU; [3]): 4.9 µM | IC50 (HEPG2; [10]): 1.4 µM | IC50 (HEPG2; [4]): 6.2 µM | IC50 [1]: > 10 µM | inhibition at 10 µM ([1]; 10 μM compound): 67.5% | IC50 (HT29; [11]): 1.2 µM | IC50 (HT29; [5]): 6.3 µM | IC50 (HTB174): 1.4 µM | IC50 [2, 6]: 2.4 µM | IC50 (A549; [12]): 3.1 µM | IC50 (A549; [7]): 6.9 µM | IC50 (MCF7; [13]): 2.1 µM | IC50 (MCF7; [8]): 5.4 µM | IC50 (U118MG): 6.8 µM

O=C(O)C(=O)N1Cc2ccccc2C(c2ccccc2)c2ccccc21 (centres unmarked) [Compound 11]
IC50 [1]: > 10 µM | inhibition at 10 µM ([1]; 10 μM compound): 9.5%

CN1Cc2ccccc2C(c2ccccc2)c2ccccc21 (centres unmarked) [Compound 2]
IC50 [1]: 1.3 µM | inhibition at 10 µM ([1]; 10 μM compound): 99% | IC50 [2, 6]: 5.2 µM

Nc1ccc(C(=O)N2Cc3ccccc3C(c3ccccc3Cl)c3ccccc32)cc1 (centres unmarked) [Compound 34]
IC50 (MMRU; [9]): 1.2 µM | IC50 (MMRU; [14]): > 10 µM | IC50 (HEPG2; [10]): 1.5 µM | IC50 [1]: > 10 µM | inhibition at 10 µM ([1]; 10 μM compound): 12% | IC50 (HT29; [11]): 1.6 µM | IC50 (HT29; [15]): 6.8 µM | IC50 (HTB174): 0.9 µM | IC50 [2, 6]: 4 µM | IC50 (A549; [12]): > 5 µM | IC50 (A549; [16]): > 10 µM | IC50 (MCF7; [13]): 2 µM

O=C(c1ccc2ccccc2c1)N1Cc2ccccc2C(c2ccccc2)c2ccccc21 (centres unmarked) [Compound 25]
IC50 [1]: > 10 µM | inhibition at 10 µM ([1]; 10 μM compound): 8.5%

c1ccc(CN2Cc3ccccc3C(c3ccccc3)c3ccccc32)cc1 (centres unmarked) [Compound 5]
IC50 (MMRU; [14]): > 10 µM | IC50 [1]: > 10 µM | inhibition at 10 µM ([1]; 10 μM compound): 14.4% | IC50 (HT29; [15]): 1 µM | IC50 (A549; [16]): 1.4 µM

COc1cccc(C(=O)N2Cc3ccccc3C(c3ccccc3)c3ccccc32)c1 (centres unmarked) [Compound 17]
IC50 (MMRU; [9]): 2.5 µM | IC50 (HEPG2; [10]): 2.6 µM | IC50 [1]: > 10 µM | inhibition at 10 µM ([1]; 10 μM compound): 20.6% | IC50 (HT29; [11]): 1.7 µM | IC50 (HTB174): 3.6 µM | IC50 [2, 6]: 1.6 µM | IC50 (A549; [12]): > 5 µM | IC50 (MCF7; [13]): 4.5 µM

Clc1ccccc1C1c2ccccc2CN(Cc2ccccc2)c2ccccc21 (centres unmarked) [Compound 8]
inhibition at 10 µM ([1]; 10 μM compound): 0% | IC50 [2, 6]: 2.2 µM

Clc1ccccc1C1c2ccccc2CNc2ccccc21 (centres unmarked) [Compound 3]
IC50 [1]: 0.886 µM | inhibition at 10 µM ([1]; 10 μM compound): 97.4% | IC50 [2, 6]: 2.4 µM

c1ccc(C2c3ccccc3CNc3ccccc32)cc1 (centres unmarked) [Compound 1]
IC50 [1]: 0.775 µM | inhibition at 10 µM ([1]; 10 μM compound): 75.2%

COc1ccc(C(=O)N2Cc3ccccc3C(c3ccccc3)c3ccccc32)cc1 (centres unmarked) [Compound 21]
IC50 (MMRU; [9]): 1.5 µM | IC50 (HEPG2; [10]): 1.9 µM | IC50 [1]: > 10 µM | inhibition at 10 µM ([1]; 10 μM compound): 2.1% | IC50 (HT29; [11]): 1.8 µM | IC50 (HTB174): 1.9 µM | IC50 [2, 6]: 2.7 µM | IC50 (A549; [12]): 4.2 µM | IC50 (MCF7; [13]): 3.5 µM

COc1cccc2c1C(c1ccccc1Cl)c1cc(Cl)ccc1N(C(=O)c1ccc(Cl)cc1)C2 (centres unmarked) [Compound 24]
IC50 [1]: > 10 µM | inhibition at 10 µM ([1]; 10 μM compound): 32 to 55%

Reference: patent US20030134842A1, “METHODS FOR THE TREATMENT OR PREVENTION OF INFLAMMATORY DISEASES CHARACTERIZED BY ABNORMAL CELL PROLIFERATION” (priority 1997, published 2003)
